Data: patent US20200317813A1, “TREATMENT AND DIAGNOSIS OF NON-PROLIFERATIVE DIABETIC RETINOPATHY” (Johann Wolfgang Goethe-Universitat Frankfurt am Main, priority 2016, published 2020)

Legend:
[1] = system: human endothelial cells; test: VE-cadherin staining and internalization in cultured endothelial cells; format: cell-based; conditions: 3 hours; for internalization of VE-cadherin: in the presence of t-AUCB (10 μmol/L), pre-labelled antibody and immunoprecipitation
Experimental: Cells were fixed with 4% PFA for 10 min at room temperature. After washing with PBS samples were blocked and permeabilized with 1% BSA, 5% horse serum, 0.5% Triton X-100 at room temperature for 2 hours or at 4° C. overnight before being exposed to primary antibody (4° C., overnight). After extensive washing and exposure to Alexa Fluor-coupled secondary antibody (1:200, 2 hours, room temperature) samples were mounted in fluorescent mounting medium and analyzed with a confocal microscope; Leica SP8 confocal microscope and LASX software (Wetzlar, Germany) or Carl Zeiss LSM-780 and ZEN software (Jena, Germany) as described^6′^32.
(§1) VE-cadherin internalization was determined as described^40. Endothelial cells were cultured on culture slides (BD, Heidelberg, Germany) coated with crosslinked gelatin until confluent and starved with 2% FCS overnight. Cells were then incubated with antibody against extracellular domain of human VE-cadherin (clone BV6, ALX-803-305 Enzo Life Sciences, Lörrach, Germany) at 4° C. for 1 hour in MCDB131 with 1% BSA medium. Unbound antibody was removed by rinsing cells with ice-cold MCDB131 medium. […] To block the degradation of internalized VE-cadherin chloroquine (300 μmol/L) was be added to the incubation medium. To assess internalized endogenous VE-cadherin cells were washed with ice-cold acid wash buffer (Hanks buffer, pH=2.7, containing 25 mmol/L glycine and 1% BSA) to assess total VE-cadherin cells were rinsed with ice-cold neutral washing buffer (Hanks buffer with 1% BSA, pH=7.4). Cells were fixed with 4% PFA for 15 minutes at 4° C. and then processed for immunofluorescence. […] Samples were imaged with an SP8 confocal microscope (Leica) and internalized particles were quantified using ImageJ (NIH) software.
Confluent cultures of human endothelial cells were incubated with antibodies recognizing the extracellular domains of human VE-cadherin (BV6 antibody) at 4° C. […] Samples were washed with lysis buffer and analyzed by SDS-PAGE.

[2] = system: murine brain microvascular endothelial cells; test: Transendothelial electrical resistance (TEER); format: cell-based, mouse; conditions: 19,20-EDP/19,20-DHDP 3 μmol/L, VEGF 20 ng/ml, 24 hours
Experimental: Impedance measurements were performed using isolated murine brain microvascular endothelial cells with a cellZscope device (nano-Analytics) as described^38. […] Measurements were performed four times in quadruplicate with endothelial cells from four different cell preparations.

[3] = system: endothelial cell-pericyte co-cultures; test: Endothelial cell-pericyte co-culture: cadherin expression, lipid rafts, immunoprecipitation; format: cell-based, human; conditions: for N-cadherin expression in cocultured cells: 19,20-EDP/19,20-DHDP 3 μmol/L, VEGF 20 ng/ml; for N-cadherin expression in cocultured cells / association (co-precipitation) of PS1 with N-cadherin and VE-cadherin / association of p120 catenin with N- or VE-cadherin: 24 hours; for lipid raft association and membrane presentation of N-cadherin: endothelial cell-pericyte cocultures; for association (co-precipitation) of PS1 with N-cadherin and VE-cadherin / association of p120 catenin with N- or VE-cadherin: immunoprecipitation from co-cultures
Experimental: Human umbilical vein endothelial cells were cultured on fibronectin coated dishes until confluent. Then pericytes were seeded on top of the endothelial cells (PC:EC=1:5) and cocultured for a further 3 days. […] Cells were then lysed with HEPES buffer: 25 mmol/L HEPES pH 7.4, 150 mmol/L NaCl, complete protease inhibitor cocktail (Roche), and 1% digitonin (Sigma). Following centrifugation at 17,000 g for 10 minutes, supernatants (1 mg of protein) were pre-cleaned with protein A/G agarose (Pierce) for 30 mins. Supernatants were then incubated with anti-VE-cadherin (1:1000, AF1002 R&D systems, Abingdon, UK) or N-cadherin (1:1000, 33-3900 life technologies, CA, USA) antibodies at 4° C. for 2 hours and then treated with protein A/G agarose for a further 2 hours. Samples were washed with lysis buffer and analyzed by SDS-PAGE.
Samples were separated by SDS-PAGE and subjected to Western blotting as described^41. Membranes were blocked in 3% BSA in PBS, incubated with primary and horseradish peroxidase-conjugated secondary antibodies in blocking solution, and detection was performed with a Lumi-Light plus western blotting substrate (Roche).
Lipid rafts were isolated as described with modifications^42. Briefly, cells were harvested by scraping and homogenized at 4° C. in sodium carbonate (0.5 mol/L, pH11) using a glass homogenizer, followed by sonication. Then, equal amounts of protein were adjusted to a final sucrose concentration of 45% (final volume, 4 mL) and transferred to 12 mL ultracentrifuge tubes. A discontinuous sucrose gradient was then formed by sequentially overlaying 4 mL of 35% and 4 ml, of 5% sucrose. Samples were subjected to ultracentrifugation (35,000 rpm, 4° C. for 20 hours) using a Beckman SW 41 rotor (Krefeld, Germany). After centrifugation, twelve 1 mL fractions were collected using a capillary tube connected to a peristaltic pump, and equal volumes of each faction were analyzed by SDS-PAGE using antibodies against flotillin 1 (1:2000, 610820 BD Biosciences, Heidelberg, Germany), VE-cadherin (1:1000, sc-28644 Santa Cruz, Darmstadt, Germany) and N-cadherin (1:1000, 33-3900 lifetechnologies, CA, USA).

[4] = system: pericytes; test: In vitro pericyte migration on endothelial cell monolayer; format: cell-based, human; conditions: 3 μmol/L
Experimental: Human umbilical vein endothelial cells were isolated and cultured as described^37, seeded on μ-slides (ibidi, Martinsried, Germany) and grown to confluence. Pericytes were labeled with cell tracker green (Invitrogen) and added to the endothelial cell monolayer. Cells were treated with either solvent (0.03% DMSO), 19,20-EDP (3 μmol/L), 19,20-DHDP (3 μmol/L). Cells were incubated in an IncuCyte imaging system (Essen Bioscience) that took photographs automatically every 15 minutes for 48 hours. Pericyte movement on top of the endothelial cell monolayer were tracked manually and analyzed with Image J (NIH, Bethesda, Md., USA). In some experiments pericytes were treated with small interfering RNA directed against N-cadherin (sc-29403, Santa Cruz). Transfection was performed with lipofectamine 2000 (Invitrogen) following the manufacturer's instructions and a scrambled control siRNA was used as control.

[5] = system: retinas from 7 month old wild-type mice; test: Retinal explants, ex vivo retina whole mount model; format: cell-based, mouse; conditions: ex vivo organ culture, 4 day period, 5 μmol/L
Experimental: Eyes from 7 months old animals were enucleated and immersed in ice-cold HBSS containing penicillin (100 U/mL) and streptomycin (100 μg/mL). Retinas were carefully dissected under stereomicroscope and divided into four quadrants with four deep radial incisions. The explants were transferred onto tissue culture inserts (0.4 μm pore, Millipore; Cork, Ireland) with the retinal ganglion cell side facing up. The inserts were placed into the wells of a 6-well plate. A serum free retinal explant media (Neurobasal A, Invitrogen) supplemented with 2% B27 (Invitrogen), 1% N2 (Invitrogen), L-glutamine (0.8 mmol/L), penicillin (100 U/mL), and streptomycin (100 μg/mL) were added to the bottle of the wells and 3 μL of media was dropped on top of the retina to keep it moist. […] After 4 days, retinas were fixed and processed as described above.

[6] = system: pericytes; test: N-cadherin internalization assay; format: cell-based, human; conditions: 3 μmol/L, 3 hours (not shown)
Experimental: as §1, with “immunofluorescence. To assess N-cadherin internalization, pericytes were incubated with an antibody against the extracellular domain of human N-cadherin (clone 8C11, 350802 BioLegend, CA. USA) at 4° C. for 1 hour in DMEM containing 1% BSA.” for “immunofluorescence.”

[7] = target: γ-secretase (Homo sapiens, UniProt P49768); conditions: by redistribution of PS1 out of lipid rafts, retina; cited from earlier work
[8] = system: retinas from wild-type and Ins2Akita mice; test: Retinal growth factor and Notch gene expression in mice treated with sEH inhibitor; format: in vivo, mouse
Experimental: Total RNA from retinas was extracted using an RNeasy kit (QIAGEN, Hilden, Germany), and equal amounts (1 μg) of total RNA was reverse transcribed (Superscript III; Invitrogen). Gene expression levels were detected using SYBR Green (Absolute QPCR SYBR Green Mix; Thermo Fisher Scientifc). The relative expression levels of the different genes studied was calculated using the 2^−ΔΔCt method with the 18S RNA as a reference.

[9] = system: Ins2Akita mice; conditions: mouse, in vivo
[10] = target: T1, sEH (Homo sapiens, UniProt P34913); conditions: cited from earlier work
T1 sequence (P34913 1-555): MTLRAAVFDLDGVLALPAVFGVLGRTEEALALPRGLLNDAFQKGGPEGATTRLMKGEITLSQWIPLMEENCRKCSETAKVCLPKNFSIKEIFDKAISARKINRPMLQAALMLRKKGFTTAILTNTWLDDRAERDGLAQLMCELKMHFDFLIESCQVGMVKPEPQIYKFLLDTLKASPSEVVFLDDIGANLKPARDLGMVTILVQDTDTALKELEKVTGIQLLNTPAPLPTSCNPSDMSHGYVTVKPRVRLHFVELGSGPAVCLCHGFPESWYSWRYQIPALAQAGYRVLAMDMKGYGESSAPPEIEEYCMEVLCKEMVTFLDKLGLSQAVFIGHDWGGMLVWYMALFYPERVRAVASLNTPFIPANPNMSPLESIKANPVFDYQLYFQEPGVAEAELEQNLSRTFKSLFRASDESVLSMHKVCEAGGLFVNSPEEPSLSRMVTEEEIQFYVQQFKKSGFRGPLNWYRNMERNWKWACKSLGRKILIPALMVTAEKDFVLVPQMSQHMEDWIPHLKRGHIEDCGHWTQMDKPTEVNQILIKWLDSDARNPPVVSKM

| Compound | internalization of VE-cadherin [1] | transendothelial electrical resistance [2] | N-cadherin expression in cocultured cells [3] | lipid raft association and membrane presentation of N-cadherin [3] | association (co-precipitation) of PS1 with N-cadherin and VE-cadherin [3] | association of p120 catenin with N- or VE-cadherin [3] | capillary pericyte loss and pericyte migration [5] | N-cadherin internalization [6] | other results |
| --- | --- | --- | --- | --- | --- | --- | --- | --- | --- |
| 19,20-dihydroxydocosapentaenoic acid [19,20-DHDP] | detected | decreased | decreased | disrupt | attenuated | did not influence | induced | induce | VE-cadherin staining of confluent endothelial cells ([1]; 3 μmol/L): discontinuous; pericyte motility [4]: increase; γ-secretase activity [7]: inhibit |
| O=C(NC12CC3CC(CC(C3)C1)C2)N[C@H]1CC[C@H](Oc2ccc(C(=O)O)cc2)CC1 (relative stereo) [t-AUCB, trans-4-[4-(3-adamantan-1-ylureido)cyclohexyloxy]-benzoic acid] |  |  |  |  |  |  |  |  | Hey1 and Jagged 1 expression [8]: tend to increase; PDFG receptor β levels in retinas [8]: failed to significantly alter; PDGFB expression in retinas [8]: increased; N-cadherin expression in retinas [9]: largely maintained; co-localization of VE-cadherin and N-cadherin with PS1 in retinas [9]: maintained; loss of desmin positive cells in retinas [9]: prevented |
| CCC1OC1CC=CCC=CCC=CCC=CCC=CCCC(=O)O (stereo not shown) [19,20-EDP, 19,20 epoxydocosapentaenoic acid] | not |  | without effect | not | without effect |  | largely ineffective | not |  |
| CCCCCCCCCCCCNC(=O)NC12CC3CC(CC(C3)C1)C2 [ADU, N-Adamantyl-N′-dodecyl urea] |  |  |  |  |  |  |  |  | activity on sEH [10]: particularly high activity |
| VEGF |  | alterations induced by 19,20-DHDP were however less pronounced than those elicited by vascular endothelial cell growth factor | without effect |  | attenuated | decreased recovery |  |  |  |
